Laboratory results from patent US10435431B2, “3,3 disubstituted 19-nor pregnane compounds, compositions, and uses thereof” (Sage Therapeutics, Inc., priority 2011, dated 2019).

Tests used:
[1] = biological target: [35S]-TBPS binding, rat brain cortical membranes; assay: Steroid inhibition of [35S]-TBPS binding; details: 2 nM [35S]-TBPS, in the presence of 5 μM GABA
Experimental: Steroid Inhibition of TBPS Binding
TBPS binding assays using rat brain cortical membranes in the presence of 5 μM GABA has been described (Gee et al, J. Pharmacol. Exp. Ther. 1987, 241, 346-353; Hawkinson et al, Mol. Pharmacol. 1994, 46, 977-985).
Briefly, cortices are rapidly removed following decapitation of carbon dioxide-anesthetized Sprague-Dawley rats (200-250 g). The cortices are homogenized in 10 volumes of ice-cold 0.32 M sucrose using a glass/teflon homogenizer and centrifuged at 1500×g for 10 min at 4° C. The resultant supernatants are centrifuged at 10,000×g for 20 min at 4° C. to obtain the P2 pellets. The P2 pellets are resuspended in 200 mM NaCl/50 mM Na—K phosphate pH 7.4 buffer and centrifuged at 10,000×g for 10 min at 4° C. This ishing procedure is repeated twice and the pellets are resuspended in 10 volumes of buffer. Aliquots (100 μL) of the membrane suspensions are incubated with 2 nM [^35S]-TBPS and 5 μL aliquots of test drug dissolved in dimethyl sulfoxide (DMSO) (final 0.5%) in the presence of 5 μM GABA. The incubation is brought to a final volume of 1.0 mL with buffer. Nonspecific binding is determined in the presence of 2 μM unlabeled TBPS and ranged from 15 to 25%. Following a 90 min incubation at room temp, the assays are terminated by filtration through glass fiber filters (Schleicher and Schuell No. 32) using a cell harvester (Brandel) and rinsed three times with ice-cold buffer. Filter bound radioactivity is measured by liquid scintillation spectrometry. Non-linear curve fitting of the overall data for each drug averaged for each concentration is done using Prism (GraphPad). […] The concentration of test compound producing 50% inhibition (IC50) of specific binding and the maximal extent of inhibition (Imax) are determined for the individual experiments with the same model used for the overall data and then the means±SEM.s of the individual experiments are calculated.
Various compounds are or can be screened to determine their potential as modulators of [^35S]-TBPS binding in vitro. These assays are or can be performed in accordance with the above discussed procedures.

[2] = biological target: T1, Recombinant α1β2γ2 GABAA Receptors (Homo sapiens, UniProt P14867+P47870); assay: Patch clamp electrophysiology of recombinant α1β2γ2 GABAA receptors, potentiation of GABA mediated currents; assay type: cell-based; details: Ltk cells, GABA EC10=0.5 μM, whole cell patch clamp; for % potentiation at 1000 nM: test article 1000 nM; for % potentiation at 10000 nM: test article 10000 nM; for % potentiation at 100 nM: test article 100 nM
T1 construct: expressed in transfected cells; host or cells: Ltk cells
T1 sequence (P14867 28-456): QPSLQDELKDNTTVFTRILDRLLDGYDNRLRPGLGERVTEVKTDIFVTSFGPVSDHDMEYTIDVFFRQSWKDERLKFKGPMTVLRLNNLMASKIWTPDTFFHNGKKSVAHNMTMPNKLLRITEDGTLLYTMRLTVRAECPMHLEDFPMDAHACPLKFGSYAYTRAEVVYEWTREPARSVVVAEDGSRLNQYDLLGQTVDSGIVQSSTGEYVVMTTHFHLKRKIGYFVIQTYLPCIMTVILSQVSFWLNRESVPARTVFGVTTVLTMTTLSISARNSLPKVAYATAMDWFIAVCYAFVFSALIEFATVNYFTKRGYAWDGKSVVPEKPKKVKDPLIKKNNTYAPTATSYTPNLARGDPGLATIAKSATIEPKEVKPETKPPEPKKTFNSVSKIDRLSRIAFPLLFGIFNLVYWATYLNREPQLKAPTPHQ
T1 sequence (P47870 25-512 limits assumed): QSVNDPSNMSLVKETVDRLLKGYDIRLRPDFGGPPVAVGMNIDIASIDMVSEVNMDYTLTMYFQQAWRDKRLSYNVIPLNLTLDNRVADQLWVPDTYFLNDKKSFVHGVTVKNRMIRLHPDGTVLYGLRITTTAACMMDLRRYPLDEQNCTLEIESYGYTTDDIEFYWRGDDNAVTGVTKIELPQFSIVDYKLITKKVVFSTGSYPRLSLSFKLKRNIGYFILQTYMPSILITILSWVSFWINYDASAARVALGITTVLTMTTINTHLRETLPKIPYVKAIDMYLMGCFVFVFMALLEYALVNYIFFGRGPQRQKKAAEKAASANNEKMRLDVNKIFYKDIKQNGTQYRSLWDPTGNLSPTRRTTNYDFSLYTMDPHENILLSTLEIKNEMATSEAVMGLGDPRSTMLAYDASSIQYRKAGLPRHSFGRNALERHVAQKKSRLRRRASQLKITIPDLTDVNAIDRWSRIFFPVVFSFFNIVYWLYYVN
T1 sequence (P18507 40-475 partner): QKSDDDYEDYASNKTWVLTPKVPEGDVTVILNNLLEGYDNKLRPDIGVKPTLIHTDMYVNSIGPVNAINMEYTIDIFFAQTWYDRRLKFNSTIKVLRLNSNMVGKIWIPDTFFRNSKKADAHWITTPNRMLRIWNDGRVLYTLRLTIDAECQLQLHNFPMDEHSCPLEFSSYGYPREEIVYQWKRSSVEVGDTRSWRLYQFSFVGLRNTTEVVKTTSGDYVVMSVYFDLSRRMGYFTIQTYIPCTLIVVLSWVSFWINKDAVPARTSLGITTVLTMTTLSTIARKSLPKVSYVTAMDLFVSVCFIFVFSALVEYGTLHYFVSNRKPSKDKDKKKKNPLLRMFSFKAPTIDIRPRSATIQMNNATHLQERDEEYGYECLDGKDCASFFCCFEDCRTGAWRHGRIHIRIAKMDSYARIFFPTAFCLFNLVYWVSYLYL
Experimental: Patch Clamp Electrophysiology of Recombinant α1β2γ2 GABAA Receptors
Cellular electrophysiology is used to measure in vitro potency and efficacy of our GABAA receptor modulators in Ltk cells. Each compound is tested for its ability to affect GABA mediated currents at a submaximal agonist dose (GABA EC10=0.5 μM) in a whole cell patch clamp technique using a EPC-10, HEKA Electronics Amplifier and PatchMaster software. These experiments measure potency, efficacy (Emax), direct gating properties and acute desensitization. Test article is added at 0.1, 1.0 and 10 uM.

| SMILES | IC50 [1] [nM] | % potentiation at 1000 nM [2] [%] | % potentiation at 10000 nM [2] [%] | % potentiation at 100 nM [2] [%] |
| --- | --- | --- | --- | --- |
| COC[C@@]1(O)CC[C@H]2[C@H](CC[C@@H]3[C@@H]2CC[C@]2(C)[C@@H](C(C)=O)CC[C@@H]32)C1 | 41 |  |  |  |
| CC(=O)[C@H]1CC[C@H]2[C@@H]3CC[C@@H]4C[C@](O)(CF)CC[C@@H]4[C@H]3CC[C@]12C | 100 |  |  |  |
| COC[C@@]1(O)CC[C@H]2[C@@H](CC[C@@H]3[C@@H]2CC[C@]2(C)[C@@H](C(=O)CO)CC[C@@H]32)C1 | 94 |  |  |  |
| C[C@]12CC[C@H]3[C@@H](CC[C@H]4C[C@@](O)(C(F)F)CC[C@@H]43)[C@@H]1CC[C@@H]2C(=O)CO | > 10000 | 0 | 100 |  |
| C[C@@]1(O)CC[C@H]2[C@H](CC[C@@H]3[C@@H]2CC[C@]2(C)[C@@H](C(=O)CO)CC[C@@H]32)C1 | 86 | 163 |  | 101 |
| CC(=O)[C@H]1CC[C@H]2[C@@H]3CC[C@@H]4C[C@@](O)(C(F)F)CC[C@@H]4[C@H]3CC[C@]12C | 33 |  |  |  |
| COC[C@@]1(O)CC[C@H]2[C@H](CC[C@@H]3[C@@H]2CC[C@]2(C)[C@@H](C(=O)CO)CC[C@@H]32)C1 | 170 |  |  |  |
| C[C@@]1(O)CC[C@H]2[C@@H](CC[C@@H]3[C@@H]2CC[C@]2(C)[C@@H](C(=O)CO)CC[C@@H]32)C1 | 220 | 130 | 227 |  |
| CC(=O)[C@H]1CC[C@H]2[C@@H]3CC[C@H]4C[C@](C)(O)CC[C@@H]4[C@H]3CC[C@]12C | 93 | 157 | 270 | 80 |
